From US9113629B2, “4-amino-6-(4-substituted-phenyl)-picolinates and 6-amino-2-(4-substituted-phenyl)-pyrimidine-4-carboxylates and their use as herbicides” (DOW AGROSCIENCES LLC, priority 2013, dated 2015)
Read-outs that look alike come from different tables or passages of the source.

Tests used:
[1] = system: Key Broadleaf Weed and Crop Species; assay: Post-emergent Test II herbicidal activity (Table 5); format: in vivo; conditions: post-emergence, 336 h, post-emergent, 14 days after application; for pest or weed control at 70 g/ha: application rate 70 g ai/ha; for pest or weed control at 140 g/ha: application rate 140 g ai/ha
Method in brief: (§1)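 Plants grown in Metro-Mix 360 (pH 6.0–6.8) in a greenhouse (~15 h photoperiod, 23–29 °C day) to first or second true leaf stage, then sprayed with compound in acetone/DMSO/aqueous crop-oil-surfactant carrier at 187 L/ha by track sprayer. Injury visually scored 0–100% versus untreated plants after 14 d.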

[2] = system: Key Grass and Sedge Weeds as well as Grass Crops; assay: Post-emergent Test II herbicidal activity (Table 6); format: in vivo; conditions: post-emergence, 336 h; for pest or weed control at 70 g/ha: application rate 70 g ai/ha; for pest or weed control at 140 g/ha: application rate 140 g ai/ha
Method in brief: as §1

[3] = ABUTH: velvetleaf (Abutilon theophrasti), read-out: Visual Growth Reduction (%) 14 Days After Application, ABUTH
[4] = AMARE: redroot pigweed (Amaranthus retroflexus), read-out: Visual Growth Reduction (%) 14 Days After Application, AMARE
[5] = BRSNN: oilseed-rape, canola (Brassica napus), read-out: Visual Growth Reduction (%) 14 Days After Application, BRSNN
[6] = CHEAL: lambsquarters (Chenopodium album), read-out: Visual Growth Reduction (%) 14 Days After Application, CHEAL
[7] = EPHHL: wild poinsettia (Euphorbia heterophylla), read-out: Visual Growth Reduction (%) 14 Days After Application, EPHHL
[8] = HELAN: sunflower (Helianthus annuus), read-out: Visual Growth Reduction (%) 14 Days After Application, HELAN
[9] = VIOTR: wild pansy (Viola tricolor), read-out: Visual Growth Reduction (%) 14 Days After Application, VIOTR
[10] = CYPES: yellow nutsedge (Cyperus esculentus), read-out: Visual Growth Reduction (%) 14 Days After Application, CYPES
[11] = DIGSA: crabgrass (Digitaria sanguinalis), read-out: Visual Growth Reduction (%) 14 Days After Application, DIGSA
[12] = ECHCG: barnyardgrass (Echinochloa crus-galli), read-out: Visual Growth Reduction (%) 14 Days After Application, ECHCG
[13] = ORYSA: rice (Oryza sativa), read-out: Visual Growth Reduction (%) 14 Days After Application, ORYSA
[14] = SETFA: giant foxtail (Setaria faberi), read-out: Visual Growth Reduction (%) 14 Days After Application, SETFA
[15] = SORVU: grain sorghum (Sorghum vulgare), read-out: Visual Growth Reduction (%) 14 Days After Application, SORVU
[16] = TRZSS (wheat, Triticum aestivum), read-out: Visual Growth Reduction (%) 14 Days After Application, TRZSS
[17] = ZEAMX: maize, corn (Zea mays), read-out: Visual Growth Reduction (%) 14 Days After Application, ZEAMX

Nc1cc(-c2cc(F)c(OC(F)F)cc2F)nc(C(=O)O)c1Cl [Compound 187]
167.4 to 170.2 °C: melting point
95 to 100%: pest or weed control at 70 g/ha [1, 4] | pest or weed control at 140 g/ha [1, 4] | pest or weed control at 140 g/ha [1, 6] | pest or weed control at 70 g/ha [1, 7] | pest or weed control at 140 g/ha [1, 7]
75 to 84%: pest or weed control at 70 g/ha [1, 5] | pest or weed control at 140 g/ha [1, 5] | pest or weed control at 70 g/ha [1, 6] | pest or weed control at 140 g/ha [2, 14]
45 to 59%: pest or weed control at 70 g/ha [1, 3] | pest or weed control at 70 g/ha [1, 8] | pest or weed control at 140 g/ha [2, 16]
60 to 74%: pest or weed control at 140 g/ha [1, 3] | pest or weed control at 140 g/ha [1, 8] | pest or weed control at 70 g/ha [2, 12] | pest or weed control at 140 g/ha [2, 12] | pest or weed control at 70 g/ha [2, 14]
30 to 44%: pest or weed control at 140 g/ha [2, 10]
0 to 29%: pest or weed control at 70 g/ha [1, 9] | pest or weed control at 140 g/ha [1, 9] | pest or weed control at 70 g/ha [2, 10] | pest or weed control at 70 g/ha [2, 11] | pest or weed control at 140 g/ha [2, 11] | pest or weed control at 70 g/ha [2, 13] | pest or weed control at 140 g/ha [2, 13] | pest or weed control at 70 g/ha [2, 15] | pest or weed control at 140 g/ha [2, 15] | pest or weed control at 70 g/ha [2, 16] | pest or weed control at 70 g/ha [2, 17] | pest or weed control at 140 g/ha [2, 17]

Cc1cc(F)c(-c2cc(N)c(Cl)c(C(=O)O)n2)cc1F [Compound 188]
75 to 84%: pest or weed control at 70 g/ha [1, 3] | pest or weed control at 70 g/ha [1, 8] | pest or weed control at 140 g/ha [1, 8] | pest or weed control at 70 g/ha [2, 12]
172.9 to 175 °C: melting point
60 to 74%: pest or weed control at 70 g/ha [1, 5] | pest or weed control at 140 g/ha [1, 5] | pest or weed control at 140 g/ha [2, 12]
95 to 100%: pest or weed control at 140 g/ha [1, 3] | pest or weed control at 70 g/ha [1, 4] | pest or weed control at 140 g/ha [1, 4] | pest or weed control at 70 g/ha [1, 6] | pest or weed control at 70 g/ha [1, 7] | pest or weed control at 140 g/ha [1, 7]
0 to 29%: pest or weed control at 70 g/ha [1, 9] | pest or weed control at 140 g/ha [1, 9] | pest or weed control at 70 g/ha [2, 10] | pest or weed control at 140 g/ha [2, 10] | pest or weed control at 70 g/ha [2, 11] | pest or weed control at 140 g/ha [2, 11] | pest or weed control at 70 g/ha [2, 13] | pest or weed control at 140 g/ha [2, 13] | pest or weed control at 70 g/ha [2, 14] | pest or weed control at 140 g/ha [2, 15] | pest or weed control at 70 g/ha [2, 16] | pest or weed control at 140 g/ha [2, 16] | pest or weed control at 70 g/ha [2, 17] | pest or weed control at 140 g/ha [2, 17]
45 to 59%: pest or weed control at 70 g/ha [2, 15]
85 to 94%: pest or weed control at 140 g/ha [1, 6]
30 to 44%: pest or weed control at 140 g/ha [2, 14]

Cc1cc(F)c(-c2nc(C(=O)O)c(Cl)c(N)c2F)cc1F [Compound 194]
75 to 84%: pest or weed control at 140 g/ha [1, 3] | pest or weed control at 140 g/ha [1, 5] | pest or weed control at 70 g/ha [1, 6]
95 to 100%: pest or weed control at 70 g/ha [1, 4] | pest or weed control at 140 g/ha [1, 4] | pest or weed control at 140 g/ha [1, 8]
0 to 29%: pest or weed control at 70 g/ha [1, 9] | pest or weed control at 140 g/ha [1, 9] | pest or weed control at 70 g/ha [2, 10] | pest or weed control at 140 g/ha [2, 10] | pest or weed control at 70 g/ha [2, 11] | pest or weed control at 140 g/ha [2, 11] | pest or weed control at 70 g/ha [2, 12] | pest or weed control at 140 g/ha [2, 12] | pest or weed control at 70 g/ha [2, 13] | pest or weed control at 140 g/ha [2, 13] | pest or weed control at 70 g/ha [2, 15] | pest or weed control at 140 g/ha [2, 15] | pest or weed control at 70 g/ha [2, 16] | pest or weed control at 140 g/ha [2, 16] | pest or weed control at 70 g/ha [2, 17] | pest or weed control at 140 g/ha [2, 17]
85 to 94%: pest or weed control at 140 g/ha [1, 6] | pest or weed control at 70 g/ha [1, 7] | pest or weed control at 140 g/ha [1, 7] | pest or weed control at 70 g/ha [1, 8]
45 to 59%: pest or weed control at 70 g/ha [2, 14]
167.4 to 170.2 °C: melting point
60 to 74%: pest or weed control at 70 g/ha [1, 3] | pest or weed control at 70 g/ha [1, 5] | pest or weed control at 140 g/ha [2, 14]
